Test results: patent US9597431B2, “Compositions and methods for promoting bone formation” (Warsaw Orthopedic, Inc., priority 2008, dated 2017)

Key:
[1] = tested on: unilateral transverse femur fractures mice; settings: osteoclast inhibitors; cited from earlier work
[2] = tested on: three millimeter defects in femurs of athymic rats; test: Critical defect model in rat femurs, new bone formation by MicroCT; assay type: in vivo; settings: two micrograms recombinant RANKL mixed with 150 mg Grafton DBM FLEX vs Grafton DBM FLEX alone, three weeks
Description: To test whether recombinant RANKL mixed with DBM may aid bone healing, a critical defect model was used in rat femurs. Three millimeter defects were created in femurs of athymic rats. The rats were divided into two groups, the bone defects from one group were implanted with 150 mg of Grafton® DBM FLEX (Osteotech, Eatontown, N.J.), the second group received Grafton® DBM FLEX mixed with two micrograms of recombinant RANKL. At three weeks, the rat femur defects were evaluated by MicroCT. […] Data was analyzed using paired student-t-test.

Molecule | removal of cartilage and remodeling of the fracture callus [1] | new bone formation compared to control group [2]
denosumab: osteoclast inhibitor | delayed | 
NCCCC(O)(P(=O)(O)O)P(=O)(O)O [alendronate] | delayed | 
RANKL: recombinant receptor activator for nuclear factor κ B ligand, mixed with Grafton DBM FLEX demineralized bone matrix implant (protein, UniProt O14788 140-317, looked up) Tumor necrosis factor ligand …: IRAEKAMVDGSWLDLAKRSKLEAQPFAHLTINATDIPSGSHKVSLSSWYHDRGWAKISNMTFSNGKLIVNQDGFYYLYANICFRHHETSGDLATEYLQLMVYVTKTSIKIPSSHTLMKGGSTKYWSGNSEFHFYSINVGGFFKLRSGEEISIEVSNPSLLDPDQDATYFGAFKVRDID |  | significantly (p<0.05) higher
